What all share (format): functional
One assay concerns Enterococcus faecalis. Put plainly: In vitro antibacterial activity against Enterococcus faecalis 850.
A further assay deals with Bacteroides fragilis. Put plainly: In vitro antibacterial activity against Bacteroides fragilis 2017.
In assay [1] the test system is Escherichia coli. Put plainly: In vitro antibacterial activity agains Escherichia coli 1852.
The subject of assay [2] is Escherichia coli. The assay is described as follows: In vitro antibacterial activity against Escherichia coli 1850.
A further assay has as its system Streptococcus pneumoniae. Put plainly: In vitro antibacterial activity against Streptococcus pneumoniae 3512.
A further assay relates to Staphylococcus aureus. Put plainly: In vitro antibacterial activity against Staphylococcus aureus 853.
Another assay deals with Clostridium perfringens. The assay is described as follows: In vitro antibacterial activity against Clostridium perfringens 615.
Assay [3] has as its system Escherichia coli. The assay is described as follows: In vitro antibacterial activity against Escherichia coli 1850.

≈ marks a conversion by molar mass, not a printed value. Bounds are passed on as bounds.

Consider `C[C@@H](O)[C@H]1C(=O)N2C(C(=O)[O-])=C3COCC[C@H]3[C@H]12.[K+]`, for which the MIC with Enterococcus faecalis came to 32 µg/mL; in the assay on Bacteroides fragilis it was 0.1 µg/mL; against Escherichia coli [1], 4 µg/mL; against Escherichia coli [2], 2 µg/mL; against Streptococcus pneumoniae, 0.1 µg/mL; with Staphylococcus aureus, 2 µg/mL. Besides, in the assay on Clostridium perfringens, the lowest concentration to inhibit growth (MIC) was 2 µg/mL.

Consider `C[C@@H](O)[C@H]1C(=O)N2C(C(=O)[O-])=C3CCCO[C@@H]3[C@H]12.[K+]`, for which the minimal inhibitory concentration (MIC) in the assay on Enterococcus faecalis worked out at 1 µg/mL; against Bacteroides fragilis, 0.1 µg/mL; with Escherichia coli [1] it was 1 µg/mL; against Escherichia coli [2], 1 µg/mL; with Streptococcus pneumoniae it was 0.06 µg/mL; against Staphylococcus aureus it was 0.5 µg/mL. In the assay with Clostridium perfringens, it took 0.06 µg/mL to inhibit growth (MIC).

`C[C@@H](O)[C@H]1C(=O)N2C(C(=O)[O-])=C3CCCC[C@@H]3[C@H]12.[K+]`: the MIC came to 8 µg/mL against Enterococcus faecalis; 1 µg/mL against Bacteroides fragilis; 1 µg/mL with Escherichia coli [1]; 1 µg/mL in the assay on Escherichia coli [2]; 0.06 µg/mL with Streptococcus pneumoniae; 1 µg/mL in the assay with Staphylococcus aureus. The minimal inhibitory concentration (MIC) against Clostridium perfringens stood at 0.1 µg/mL.

With `C[C@@H](O)[C@H]1C(=O)N2C(C(=O)[O-])=C3COCC[C@@H]3[C@H]12.[K+]`, the MIC in the assay on Enterococcus faecalis was found to be 8 µg/mL; with Bacteroides fragilis, 0.2 µg/mL; in the assay on Escherichia coli [1] it was 0.5 µg/mL; with Escherichia coli [2] it was 0.5 µg/mL; in the assay with Streptococcus pneumoniae it was 0.06 µg/mL; in the assay on Staphylococcus aureus, 0.5 µg/mL. The compound also showed an MIC with Clostridium perfringens of 0.5 µg/mL.

With `C[C@@H](O)[C@H]1C(=O)N2C(C(=O)[O-])=C3CCCO[C@H]3[C@H]12.[K+]`, the minimum inhibitory concentration (MIC) with Enterococcus faecalis was 16 µg/mL; against Bacteroides fragilis it was 0.2 µg/mL; in the assay with Escherichia coli [1] it was 4 µg/mL; with Escherichia coli [2], 2 µg/mL; with Streptococcus pneumoniae it was 0.2 µg/mL; in the assay on Staphylococcus aureus, 1 µg/mL. Moreover, the minimal inhibitory concentration (MIC) with Clostridium perfringens came out at 1 µg/mL.

For `C[C@@H](O)[C@H]1C(=O)N2C(C(=O)[O-])=C3CCCC[C@H]3[C@H]12.[K+]`, the MIC in the assay with Enterococcus faecalis was 16 µg/mL; in the assay on Bacteroides fragilis, 0.5 µg/mL; with Escherichia coli [1], 2 µg/mL; in the assay with Streptococcus pneumoniae, 0.5 µg/mL; against Staphylococcus aureus it was 1 µg/mL; against Clostridium perfringens, 1 µg/mL. Besides, 2 µg/mL was the least that counted as inhibitory in the assay on Escherichia coli [3] (MIC).

With `CO[C@H]1CCC[C@H]2C1=C(C(=O)O)N1C(=O)[C@H]([C@@H](C)O)[C@@H]21` [SANFETRINEM], the MIC in the assay on Enterococcus faecalis was 1 µg/mL (≈ 3.55 µM); in the assay with Bacteroides fragilis it was 0.06 µg/mL (≈ 0.213 µM); in the assay with Escherichia coli [1] it was 0.5 µg/mL (≈ 1.78 µM); with Escherichia coli [2], 0.5 µg/mL (≈ 1.78 µM); against Streptococcus pneumoniae, less than 0.01 µg/mL; in the assay on Staphylococcus aureus, 0.2 µg/mL (≈ 0.711 µM). Further, 0.03 µg/mL (≈ 0.107 µM) was the least that counted as inhibitory against Clostridium perfringens (MIC).

Broadly, the MIC is the least concentration at which growth counts as inhibited. Read a low MIC as inhibition by little substance.

The values above are taken from ChEMBL document CHEMBL1129696, “5- and 7-oxa trinems: their synthesis and biological evaluation” (1996).
